Experimental data from ChEMBL document CHEMBL3826941, “Optimization of pyrazole-containing 1,2,4-triazolo-[3,4-b]thiadiazines, a new class of STAT3 pathway inhibitors” (Bioorg Med Chem Lett, 2016).
The source made the active and inactive calls. No cut-off for these calls is given here.

target: Signal transducer and activator of transcription 3 (Homo sapiens) (UniProt P40763); assay: Inhibition of STAT3 phosphorylation at Tyr705 in IL6-induced human CAL33 cells assessed as phosphorylated STAT3 at Tyr705 to STAT3 ratio at 30 uM by Western blot analysis; format: cell-based; conditions: CAL-33
Sequence (P40763 whole entry): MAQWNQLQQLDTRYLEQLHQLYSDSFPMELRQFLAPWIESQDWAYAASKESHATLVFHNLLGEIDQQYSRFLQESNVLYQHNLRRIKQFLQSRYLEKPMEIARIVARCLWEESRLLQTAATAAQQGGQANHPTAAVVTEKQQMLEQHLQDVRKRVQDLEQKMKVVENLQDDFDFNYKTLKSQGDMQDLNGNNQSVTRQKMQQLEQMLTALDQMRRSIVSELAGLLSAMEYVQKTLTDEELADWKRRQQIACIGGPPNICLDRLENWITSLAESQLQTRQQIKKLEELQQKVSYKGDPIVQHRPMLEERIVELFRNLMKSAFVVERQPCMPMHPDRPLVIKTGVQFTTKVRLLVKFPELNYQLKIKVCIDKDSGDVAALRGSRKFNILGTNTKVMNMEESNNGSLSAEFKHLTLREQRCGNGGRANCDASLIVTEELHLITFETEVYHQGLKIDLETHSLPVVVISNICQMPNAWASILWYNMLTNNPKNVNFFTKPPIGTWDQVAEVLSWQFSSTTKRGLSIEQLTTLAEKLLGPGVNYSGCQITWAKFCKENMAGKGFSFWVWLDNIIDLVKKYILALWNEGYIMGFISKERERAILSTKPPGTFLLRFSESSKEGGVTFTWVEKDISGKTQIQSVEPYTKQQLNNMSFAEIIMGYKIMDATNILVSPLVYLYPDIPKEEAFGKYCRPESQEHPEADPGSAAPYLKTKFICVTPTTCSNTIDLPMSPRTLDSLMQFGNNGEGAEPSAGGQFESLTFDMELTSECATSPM

Row | Compound | inhibition
1 | COc1ccc(C2=Nn3c(nnc3-c3cc(-c4ccc(Cl)cc4)n[nH]3)SC2C)cc1 (stereo in doubt; form 1) [listing 1 of 2 here] | 55%
2 | CC1Sc2nnc(-c3cc(-c4ccccc4)n[nH]3)n2N=C1c1ccccc1 (stereo unspecified) | 28%

target: Signal transducer and activator of transcription 3 (Homo sapiens) (UniProt P40763); assay: Inhibition of STAT3 in IL6-induced human CAL33 cells assessed as inhibition of Bcl-XL gene levels at 3 to 100 uM by Western blot analysis; format: cell-based; conditions: CAL-33

Row | Compound | inhibition
3 | COc1ccc(C2=Nn3c(nnc3-c3cc(-c4ccc(Cl)cc4)n[nH]3)SC2C)cc1 (stereo in doubt; form 1) [listing 1 of 2 here] | Active
4 | CC1Sc2nnc(-c3cc(-c4ccccc4)n[nH]3)n2N=C1c1ccccc1 (stereo unspecified) | Active

tested on: Liver microsome; assay: Half life in human liver microsomes; format: ADME; conditions: not given

Row | t1/2 | Compound
5 | 14 min | Clc1ccc(C2=Nn3c(nnc3-c3[nH]nc4c3CCC4)SC2)cc1Cl
6 | 27 min | CC1Sc2nnc(-c3cc(-c4ccccc4)n[nH]3)n2N=C1c1ccccc1 (stereo unspecified)

tested on: not listed separately; assay: Antiproliferative activity against human OSC19 cells assessed as cell growth inhibition; format: functional; conditions: not given

Row | Compound | GI50
7 | Clc1ccc(C2=Nn3c(nnc3-c3[nH]nc4c3CCC4)SC2)cc1Cl | 14 µM
8 | COc1ccc(C2=Nn3c(nnc3-c3cc(-c4ccc(Cl)cc4)n[nH]3)SC2C)cc1 (stereo in doubt; form 1) [listing 2 of 2 here] | 14.9 µM
9 | Clc1ccc(C2=Nn3c(nnc3-c3cc(-c4ccccc4)[nH]n3)SC2)cc1 | 27 µM
10 | COc1ccc(C2=Nn3c(nnc3-c3[nH]nc4c3CCC4)SC2C)cc1 (stereo unspecified) | 3.1 µM
11 | CC1Sc2nnc(-c3cc(-c4ccccc4)n[nH]3)n2N=C1c1ccccc1 (stereo unspecified) | 31.3 µM

target: Signal transducer and activator of transcription 3 (Homo sapiens) (UniProt P40763); assay: Inhibition of STAT3 phosphorylation at Tyr705 in IL6-induced human CAL33 cells assessed as phosphorylated STAT3 at Tyr705 to STAT3 ratio at 100 uM by Western blot analysis; format: cell-based; conditions: CAL-33

Row | Compound | inhibition
12 | COc1ccc(C2=Nn3c(nnc3-c3cc(-c4ccc(Cl)cc4)n[nH]3)SC2C)cc1 (stereo in doubt; form 1) [listing 1 of 2 here] | 99.7%
13 | CC1Sc2nnc(-c3cc(-c4ccccc4)n[nH]3)n2N=C1c1ccccc1 (stereo unspecified) | 99%

target: Signal transducer and activator of transcription 3 (Homo sapiens) (UniProt P40763); assay: Inhibition of STAT3 phosphorylation at Tyr705 in IL6-induced human CAL33 cells assessed as phosphorylated STAT3 at Tyr705 to STAT3 ratio at 10 uM by Western blot analysis; format: cell-based; conditions: CAL-33

Row | Compound | inhibition
14 | COc1ccc(C2=Nn3c(nnc3-c3cc(-c4ccc(Cl)cc4)n[nH]3)SC2C)cc1 (stereo in doubt; form 1) [listing 1 of 2 here] | 21%
15 | CC1Sc2nnc(-c3cc(-c4ccccc4)n[nH]3)n2N=C1c1ccccc1 (stereo unspecified) | 15%

target: T1, Signal transducer and activator of transcription 1-alpha/beta (Homo sapiens) (UniProt P42224); assay: Inhibition of IFNgamma-induced STAT1 (unknown origin) at 50 uM; conditions: not given
T1 sequence (whole entry): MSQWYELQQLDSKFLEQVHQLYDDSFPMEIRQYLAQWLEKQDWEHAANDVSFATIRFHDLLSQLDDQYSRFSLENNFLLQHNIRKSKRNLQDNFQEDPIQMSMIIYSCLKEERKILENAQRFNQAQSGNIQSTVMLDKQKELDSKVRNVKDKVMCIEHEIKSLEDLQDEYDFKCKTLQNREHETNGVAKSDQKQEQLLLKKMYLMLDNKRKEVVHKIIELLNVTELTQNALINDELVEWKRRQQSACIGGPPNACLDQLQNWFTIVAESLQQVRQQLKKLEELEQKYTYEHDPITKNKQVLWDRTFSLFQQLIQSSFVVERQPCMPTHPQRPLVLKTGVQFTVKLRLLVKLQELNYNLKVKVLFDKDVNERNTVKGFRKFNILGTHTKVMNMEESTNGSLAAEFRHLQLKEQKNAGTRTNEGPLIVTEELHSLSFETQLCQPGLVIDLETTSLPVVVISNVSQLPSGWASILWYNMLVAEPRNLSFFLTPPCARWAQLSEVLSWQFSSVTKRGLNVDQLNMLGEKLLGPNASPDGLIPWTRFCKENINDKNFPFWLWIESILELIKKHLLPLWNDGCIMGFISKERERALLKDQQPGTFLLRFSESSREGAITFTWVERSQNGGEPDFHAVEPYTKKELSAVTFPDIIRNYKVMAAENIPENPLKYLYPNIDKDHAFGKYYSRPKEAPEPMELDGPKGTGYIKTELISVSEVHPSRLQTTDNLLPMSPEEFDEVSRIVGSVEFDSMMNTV

Row | inhibition | Compound
16 | inactive | Clc1ccc(C2=Nn3c(nnc3-c3[nH]nc4c3CCC4)SC2)cc1Cl
17 | inactive | Clc1ccc(C2=Nn3c(nnc3-c3cc(-c4ccccc4)[nH]n3)SC2)cc1

target: Signal transducer and activator of transcription 3 (Homo sapiens) (UniProt P40763); assay: Inhibition of STAT3 in IL6-induced human CAL33 cells assessed as inhibition of cyclin D1 gene levels at 3 to 100 uM by Western blot analysis; format: cell-based; conditions: CAL-33

Row | Compound | inhibition
18 | COc1ccc(C2=Nn3c(nnc3-c3cc(-c4ccc(Cl)cc4)n[nH]3)SC2C)cc1 (stereo in doubt; form 1) [listing 1 of 2 here] | Active
19 | CC1Sc2nnc(-c3cc(-c4ccccc4)n[nH]3)n2N=C1c1ccccc1 (stereo unspecified) | Active

target: Signal transducer and activator of transcription 3 (Homo sapiens) (UniProt P40763); assay: Inhibition of STAT3 phosphorylation at Tyr705 in IL6-induced human CAL33 cells at 3 to 100 uM by Western blot analysis; format: cell-based; conditions: CAL-33

Row | Compound | inhibition
20 | COc1ccc(C2=Nn3c(nnc3-c3cc(-c4ccc(Cl)cc4)n[nH]3)SC2C)cc1 (stereo in doubt; form 1) [listing 1 of 2 here] | Active
21 | CC1Sc2nnc(-c3cc(-c4ccccc4)n[nH]3)n2N=C1c1ccccc1 (stereo unspecified) | Active

tested on: not listed separately; assay: Half life in mouse liver microsomes; format: ADME; conditions: not given

Row | t1/2 | Compound
22 | 4 min | Clc1ccc(C2=Nn3c(nnc3-c3[nH]nc4c3CCC4)SC2)cc1Cl
23 | 10 min | CC1Sc2nnc(-c3cc(-c4ccccc4)n[nH]3)n2N=C1c1ccccc1 (stereo unspecified)

tested on: not listed separately; assay: Antiproliferative activity against human CAL33 cells assessed as cell growth inhibition; format: functional, CAL-33; conditions: not given

Row | Compound | GI50
24 | COc1ccc(C2=Nn3c(nnc3-c3cc(-c4ccc(Cl)cc4)n[nH]3)SC2C)cc1 (stereo in doubt; form 1) [listing 2 of 2 here] | 2.2 µM
25 | COc1ccc(C2=Nn3c(nnc3-c3cc(-c4ccc(Cl)cc4)n[nH]3)SC2C)cc1 (stereo in doubt; form 3) | 21.8 µM
26 | COc1ccc(C2=Nn3c(nnc3-c3cc(-c4ccc(Cl)cc4)n[nH]3)SC2C)cc1 (stereo in doubt; form 2) | 2.7 µM

same assay, conditions: Homo sapiens, CAL-33

Row | Compound | GI50
27 | Clc1ccc(C2=Nn3c(nnc3-c3[nH]nc4c3CCC4)SC2)cc1Cl | 14 µM
28 | COCCC1Sc2nnc(-c3cc(-c4ccccc4)n[nH]3)n2N=C1c1ccc(OC)cc1 (stereo unspecified) | 0.04 µM
29 | Clc1ccc(C2=Nn3c(nnc3-c3[nH]nc4c3CCC4)SC2Cc2ccccc2)cc1Cl (stereo unspecified) | 3.3 µM
30 | COc1ccc(C2=Nn3c(nnc3-c3[nH]nc4c3CCC4)SC2C(C)C)cc1 (stereo unspecified) | 0.4 µM
31 | CC1Sc2nnc(-c3[nH]nc4c3CCC4)n2N=C1c1ccc(Cl)c(Cl)c1 (stereo unspecified) | 1.9 µM
32 | COc1ccc(C2=Nn3c(nnc3-c3cc(-c4ccc(F)cc4)n[nH]3)SC2C)cc1 (stereo unspecified) | 29.5 µM
33 | CC1Sc2nnc(-c3cc(-c4ccc(F)cc4)n[nH]3)n2N=C1c1ccccc1 (stereo unspecified) | 36.3 µM
34 | Clc1ccc(C2=Nn3c(nnc3-c3cc(-c4ccccc4)[nH]n3)SC2)cc1 | 27 µM
35 | COc1ccc(C2=Nn3c(nnc3-c3[nH]nc4c3CCC4)SC2C)cc1 (stereo unspecified) | 0.18 µM
36 | COc1ccc(C2=Nn3c(nnc3-c3cc(-c4ccccc4)n[nH]3)SC2CC(C)C)cc1 (stereo unspecified) | 0.5 µM
37 | CC(C)CC1Sc2nnc(-c3[nH]nc4c3CCC4)n2N=C1c1ccc(Cl)c(Cl)c1 (stereo unspecified) | 3.5 µM
38 | COc1ccc(C2=Nn3c(nnc3-c3cc(-c4ccccc4)n[nH]3)SC2CCN)cc1 (stereo unspecified) | 2.5 µM
39 | CC1Sc2nnc(-c3cc(-c4ccccc4)n[nH]3)n2N=C1c1ccccc1 (stereo unspecified) | 34.1 µM
40 | CC1(C)Sc2nnc(-c3[nH]nc4c3CCC4)n2N=C1c1ccc(Cl)c(Cl)c1 | > 50 µM
41 | CC(C)C1Sc2nnc(-c3[nH]nc4c3CCC4)n2N=C1c1ccc(Cl)c(Cl)c1 (stereo unspecified) | 8.2 µM

tested on: FaDu; assay: Antiproliferative activity against human FADU cells assessed as cell growth inhibition; format: functional; conditions: not given

Row | Compound | GI50
42 | Clc1ccc(C2=Nn3c(nnc3-c3[nH]nc4c3CCC4)SC2)cc1Cl | 14 µM
43 | COc1ccc(C2=Nn3c(nnc3-c3cc(-c4ccc(Cl)cc4)n[nH]3)SC2C)cc1 (stereo in doubt; form 1) [listing 2 of 2 here] | 8.4 µM
44 | Clc1ccc(C2=Nn3c(nnc3-c3cc(-c4ccccc4)[nH]n3)SC2)cc1 | 27 µM
45 | COc1ccc(C2=Nn3c(nnc3-c3[nH]nc4c3CCC4)SC2C)cc1 (stereo unspecified) | 1.3 µM
46 | CC1Sc2nnc(-c3cc(-c4ccccc4)n[nH]3)n2N=C1c1ccccc1 (stereo unspecified) | 32.7 µM

tested on: not listed separately; assay: Antiproliferative activity against human 686LN cells assessed as cell growth inhibition; format: functional; conditions: not given

Row | Compound | GI50
47 | Clc1ccc(C2=Nn3c(nnc3-c3[nH]nc4c3CCC4)SC2)cc1Cl | 14 µM
48 | COc1ccc(C2=Nn3c(nnc3-c3cc(-c4ccc(Cl)cc4)n[nH]3)SC2C)cc1 (stereo in doubt; form 1) [listing 2 of 2 here] | 17.4 µM
49 | Clc1ccc(C2=Nn3c(nnc3-c3cc(-c4ccccc4)[nH]n3)SC2)cc1 | 27 µM
50 | COc1ccc(C2=Nn3c(nnc3-c3[nH]nc4c3CCC4)SC2C)cc1 (stereo unspecified) | 0.88 µM
51 | CC1Sc2nnc(-c3cc(-c4ccccc4)n[nH]3)n2N=C1c1ccccc1 (stereo unspecified) | 32.2 µM
